Common to all, as to format: cell-based
Experiment [1] has as its target T1, human EDG8 (S1PR5) receptor (Homo sapiens, UniProt Q9H228).
T1 construct: carries the transgenes human EDG8 (S1PR5) receptor (Acession number NP_110387.1); expressed in transfected cells; host or cells: CHO-A21-EDG8#12 (CHO clone co-expressing mitochondrial aequorin and chimaeric Gaqi5)
Put plainly: Aequorin assay, agonist potency, CHO-A21-EDG8#12 cells. As to conditions: agonist mode, aequorin luminescence; read-out: S1P5 EC50 range #. An outline of the steps:
(§1)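 CHO cells coexpressing receptor, mitochondrial aequorin and Gαqi5 (S1P3 pool: GNA16) were loaded overnight at RT with 5 μM coelenterazine h in 0.1% fatty-acid-free BSA buffer. Cells were injected onto compound, luminescence recorded 90 s and integrated, normalised to digitonin or 20 μM ATP; sigmoidal fit.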

In experiment [2] the target is T2, human EDG1 (S1PR1) receptor (Homo sapiens, UniProt P21453).
T2 construct: expressed in transfected cells; host or cells: CHO-A21-Edg1#17 (CHO clone co-expressing mitochondrial aequorin and chimaeric Gaqi5)
The experiment is described as follows: Aequorin assay, agonist potency, CHO-A21-Edg1#17 cells. As to conditions: agonist mode, aequorin luminescence; read-out: S1P1 EC50. An outline of the steps: as §1

Experiment [3] addresses T3, human EDG3 (S1PR3) receptor (Homo sapiens, UniProt Q99500).
T3 construct: expressed in transfected cells; host or cells: CHO-A2-S1P3 Mix (CHO cell pool co-expressing mitochondrial aequorin and GNA16)
Put plainly: Aequorin assay, agonist potency, CHO-A2-S1P3 Mix cells. Conditions: agonist mode, aequorin luminescence. How it is done:
Agonistic activity was measured as described below.
Cell clone CHO-A21-Edg1#17 carries the transgenes human EDG1 (S1PR1) receptor (Accession number NP_001391.2), mitochondrially targeted Aequorin (active part corresponds to accession number 1SL8_A) and chimaeric Gaqi5=Gaq modified with the 5 C-terminal amino-acids replaced with those of the Gai protein (DCGLF). CHO-A2-S1P3 Mix is a cell pool ectopically expressing human EDG3 (S1PR3) receptor (Accession number NP_005217.2) mitochondrially targeted Aequorin (active part has a sequence similar to accession number AY601106.1) and GNA16 (Accession number NP_002059.3). Cell clone CHO-A21-EDG8#12 carries the transgenes human EDG8 (S1PR5) receptor (Acession number NP_110387.1), mitochondrially expressed Aequorin (active part corresponds to accession number 1SL8_A) and chimaeric Gaqi5 (Gaq modified to present the 5 last amino-acids of the Gai protein “DCGLF”; see above). Cells are grown to mid-log phase in culture medium (HAM's F12, 10% FBS, 100 IU/mL penicillin, 100 μg/mL streptomycin, 250 μg/mL Zeocin, 400 μg/mL G418). 18 hours prior to frozen cells preparation, the medium is changed to remove the antibiotics.
18 hours prior to the test, vials of frozen cells are quickly thawed in a 37° C. water bath, cells are recovered by centrifugation and resuspended in assay buffer (DMEM/HAM's F12 with HEPES, without phenol red+0.1% fatty acid-free BSA). Cells are gently agitated in suspension overnight at RT in presence of 5 μM of Coelenterazine h (Molecular Probes). On the day of the test, cells are diluted to their final working concentrations in assay buffer and agitated in suspension for 1 h at RT. Cells are then placed in the luminescence reader (Hamamatsu Functional Drug Screening System 6000, FDSS6000). During cells incubation, compounds are prepared in 100% DMSO, and subsequently diluted in assay buffer. Compounds are then dispensed in the assay plate (black, clear-bottom, 384-well plate). After binding of agonists to the human S1P receptor the intracellular calcium concentration increases and binding of calcium to the Aequorin/Coelenterazine complex leads to an oxidation reaction of coelenterazine, which results in the production of Aequorin, coelenteramide, CO2 and light (Dmax 469 nm). The luminescent response is dependent on the agonist concentration. For agonist testing, 30 μL of cell suspension are injected on 30 μL of test compound or reference agonist in the assay plate. The resulting emission of light is recorded for 90 seconds using the FDSS6000. Dose response curves with the reference compounds are performed before testing the compounds. S1P is the reference agonist and JTE-013 the reference antagonist for S1P2.
Luminescence data are integrated over the reading interval for agonist and antagonist modes. To standardize the emission of recorded light (determination of the “100% signal”) across plates and across different experiments, some of the wells contain 100 μM digitonin or a saturating concentration of ATP (20 μM). Plates also contain the reference agonist at a concentration equivalent to the EC80 obtained during the test validation and the EC100. Dose-response data from test compounds were analyzed with XLfit (IDBS) software using nonlinear regression applied to a sigmoidal dose-response model and the following equation: […]

For experiment [4], the target named is T4, S1P4 (Homo sapiens, UniProt O95977).
T4 sequence (O95977 1-384): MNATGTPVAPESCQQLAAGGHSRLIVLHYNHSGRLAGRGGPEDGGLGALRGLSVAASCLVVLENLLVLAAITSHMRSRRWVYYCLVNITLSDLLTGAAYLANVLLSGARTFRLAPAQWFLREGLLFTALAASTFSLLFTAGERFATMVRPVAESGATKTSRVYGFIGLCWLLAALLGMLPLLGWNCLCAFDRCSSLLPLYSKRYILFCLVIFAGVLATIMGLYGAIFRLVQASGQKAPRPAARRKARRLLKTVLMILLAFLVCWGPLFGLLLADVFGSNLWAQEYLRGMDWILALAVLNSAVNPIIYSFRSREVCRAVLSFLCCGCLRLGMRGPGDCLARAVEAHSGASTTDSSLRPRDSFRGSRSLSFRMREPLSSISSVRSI
Put plainly: Aequorin assay, agonist potency, S1P4. As to conditions: agonist mode, aequorin luminescence. A digest of the protocol:
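Cells loaded overnight at RT with 5 μM coelenterazine h in DMEM/HAM's F12 with HEPES plus 0.1% fatty acid-free BSA, then injected onto compounds; agonist-induced calcium luminescence recorded for 90 s and integrated. Signal normalised to digitonin (100 μM) or ATP (20 μM) wells, S1P as reference agonist; sigmoidal nonlinear regression.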

pEC50: −log10 of the molar value. Counter-ions that a name gives are not always drawn.

T3 sequence (Q99500 whole entry): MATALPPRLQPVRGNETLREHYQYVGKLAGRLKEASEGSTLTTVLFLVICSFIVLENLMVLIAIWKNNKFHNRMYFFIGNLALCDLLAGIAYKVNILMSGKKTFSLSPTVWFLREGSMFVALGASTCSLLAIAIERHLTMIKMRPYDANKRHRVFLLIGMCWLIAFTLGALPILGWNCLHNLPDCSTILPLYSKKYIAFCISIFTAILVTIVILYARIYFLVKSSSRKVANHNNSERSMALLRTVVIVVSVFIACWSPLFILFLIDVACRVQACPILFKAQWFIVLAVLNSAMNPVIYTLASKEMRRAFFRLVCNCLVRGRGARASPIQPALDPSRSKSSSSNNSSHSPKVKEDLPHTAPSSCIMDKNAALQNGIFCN
T2 sequence (P21453 whole entry): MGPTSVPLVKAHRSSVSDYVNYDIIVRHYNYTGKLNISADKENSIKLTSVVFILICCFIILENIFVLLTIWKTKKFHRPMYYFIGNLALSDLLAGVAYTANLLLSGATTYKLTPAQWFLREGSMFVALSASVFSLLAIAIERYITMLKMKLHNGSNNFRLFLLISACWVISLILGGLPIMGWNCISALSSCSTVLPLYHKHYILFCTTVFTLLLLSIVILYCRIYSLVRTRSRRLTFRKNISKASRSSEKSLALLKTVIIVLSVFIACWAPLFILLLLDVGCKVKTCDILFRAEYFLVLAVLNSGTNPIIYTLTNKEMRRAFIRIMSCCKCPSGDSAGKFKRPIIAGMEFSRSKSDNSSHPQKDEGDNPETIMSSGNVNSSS
T1 sequence (Q9H228 whole entry): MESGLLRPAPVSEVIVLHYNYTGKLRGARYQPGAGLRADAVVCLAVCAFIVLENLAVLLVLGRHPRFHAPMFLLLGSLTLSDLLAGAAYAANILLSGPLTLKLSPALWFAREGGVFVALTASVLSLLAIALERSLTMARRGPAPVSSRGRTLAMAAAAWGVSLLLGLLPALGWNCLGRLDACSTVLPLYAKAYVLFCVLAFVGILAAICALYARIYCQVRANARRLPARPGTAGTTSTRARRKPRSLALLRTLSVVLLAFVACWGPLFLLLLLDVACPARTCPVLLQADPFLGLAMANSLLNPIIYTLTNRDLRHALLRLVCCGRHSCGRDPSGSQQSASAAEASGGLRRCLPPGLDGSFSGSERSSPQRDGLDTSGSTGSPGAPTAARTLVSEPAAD

By pEC50 is commonly meant −log10 of the EC50, conventionally taken in molar units. In the case of `CCc1cccc(F)c1COc1ccc2c(c1)CC1(CCN(CC(=O)O)CC1)C2` [Example 159, 2-(5-((2-ethyl-6-fluorobenzyl)oxy)-1,3-dihydrospiro[indene-2,4′-piperidin]-1′-yl)acetic acid hydrochloride], the pEC50 in experiment [1] is at least 8.00; in experiment [2], under 6.00; in experiment [3], under 6.00; in experiment [4], over 6.00.

For `O=C(O)C1(CN2CC3(Cc4ccc(OCc5ccccc5)cc4C3)C2)CC1` [Example 29, 1-((5′-(benzyloxy)-1′,3′-dihydrospiro[azetidine-3,2′-inden]-1-yl)methyl)cyclopropanecarboxylic acid], the negative-log EC50 (pEC50) was 5.00 to 6.00 in experiment [1], under 6.00 in experiment [2], under 6.00 in experiment [3] and under 6.00 in experiment [4].

As for `CCc1cccc(Cl)c1COc1ccc2c(c1)CC1(C2)CN(CCC(=O)O)C1` [Example 7, 3-(5′-((2-chloro-6-ethylbenzyl)oxy)-1′,3′-dihydrospiro[azetidine-3,2′-inden]-1-yl)propanoic acid hydrochloride], the pEC50 was at least 8.00 in experiment [1], under 6.00 in experiment [2], under 6.00 in experiment [3] and over 6.00 in experiment [4].

`O=C(O)C1(CN2CC3(Cc4ccc(OCc5c(Cl)cccc5C5CC5)cc4C3)C2)CC1` [Example 44, 1-((5′-((2-chloro-6-cyclopropylbenzyl)oxy)-1′,3′-dihydrospiro[azetidine-3,2′-inden]-1-yl)methyl)cyclopropanecarboxylic acid compound with acetic acid (1:1)]: the negative logarithm of the EC50 (pEC50) was at least 8.00 in experiment [1], under 6.00 in experiment [2], under 6.00 in experiment [3] and over 6.00 in experiment [4].

Regarding `Cc1cccc(C)c1COc1ccc2c(c1)CC1(C2)CN(CC2(C(=O)O)CC2)C1` [Example 39, 1-((5′-((2,6-dimethylbenzyl)oxy)-1′,3′-dihydrospiro[azetidine-3,2′-inden]-1-yl)methyl)cyclopropanecarboxylic acid compound with 2,2,2-trifluoroacetic acid (1:1)], the pEC50 in experiment [1] is at least 8.00; in experiment [2] it was under 6.00; in experiment [3], under 6.00; in experiment [4], over 6.00.

Turning to `O=C(O)CN1CC2(Cc3ccc(OCc4c(Cl)cccc4C4CC4)cc3C2)C1` [Example 15, 2-(5′-((2-chloro-6-cyclopropylbenzyl)oxy)-1′,3′-dihydrospiro[azetidine-3,2′-inden]-1-yl)acetic acid], the negative-log EC50 (pEC50) is at least 8.00 in experiment [1], under 6.00 in experiment [2], under 6.00 in experiment [3] and over 6.00 in experiment [4].

Regarding `O=C(O)C1(CN2CC3(Cc4ccc(-c5ccc(OCc6ccc(Cl)cc6)cc5)cc4C3)C2)CC1` [Example 108, 1-((5′-(4-((4-chlorobenzyl)oxy)phenyl)-1′,3′-dihydrospiro[azetidine-3,2′-inden]-1-yl)methyl)cyclopropanecarboxylic acid], the pEC50 in experiment [1] is 7.00 to 8.00; in experiment [2], under 6.00; in experiment [3] it was under 6.00; in experiment [4], under 6.00.

Consider `O=C(O)CN1CC2(Cc3ccc(OCc4ccc(Cl)c(Cl)c4)cc3C2)C1` [Example 25, 2,2,2-trifluoroacetic acid compound with 2-(5′-((3,4-dichlorobenzyl)oxy)-1′,3′-dihydrospiro[azetidine-3,2′-inden]-1-yl)acetic acid (1:1)], for which the negative logarithm of the EC50 (pEC50) was 7.00 to 8.00 in experiment [1], under 6.00 in experiment [2], under 6.00 in experiment [3] and over 6.00 in experiment [4].

As to `O=C(O)C1(CN2CC3(Cc4ccc(-c5ccc(OCC6CCCCC6)cc5)cc4C3)C2)CC1` [Example 51, 1-((5′-(4-(cyclohexylmethoxy)phenyl)-1′,3′-dihydrospiro[azetidine-3,2′-inden]-1-yl)methyl)cyclopropanecarboxylic acid], the negative logarithm of the EC50 (pEC50) in experiment [1] was 7.00 to 8.00; in experiment [2] it was under 6.00; in experiment [3] it was under 6.00; in experiment [4] it was under 6.00.

For `O=C(O)C1(CN2CC3(Cc4ccc(OCCc5c(Cl)cccc5Cl)cc4C3)C2)CC1` [Example 59, 1-((5′-(2,6-dichlorophenethoxy)-1′,3′-dihydrospiro[azetidine-3,2′-inden]-1-yl)methyl)cyclopropanecarboxylic acid], the negative-log EC50 (pEC50) is at least 8.00 in experiment [1], under 6.00 in experiment [2], under 6.00 in experiment [3] and over 6.00 in experiment [4].

Take `O=C(O)CN1CC2(Cc3ccc(OCc4c(Cl)cccc4Cl)cc3C2)C1` [Example 109, 2-(5′-((2,6-dichlorobenzyl)oxy)-1′,3′-dihydrospiro[azetidine-3,2′-inden]-1-yl)acetic acid]: the pEC50 in experiment [1] is at least 8.00; in experiment [2] it was under 6.00; in experiment [3], under 6.00; in experiment [4], over 6.00.

`CCc1cccc(Cl)c1COc1ccc2c(c1)CC1(CCN(CC(=O)O)CC1)C2` [Example 161, 2-(5-((2-chloro-6-ethylbenzyl)oxy)-1,3-dihydrospiro[indene-2,4′-piperidin]-1′-yl)acetic acid hydrochloride]: the pEC50 in experiment [1] was at least 8.00; in experiment [2], under 6.00; in experiment [3], under 6.00; in experiment [4], over 6.00.

As to `O=C(O)CN1CC2(Cc3ccc(OCc4cc(Cl)ccc4Cl)cc3C2)C1` [Example 23, 2,2,2-trifluoroacetic acid compound with 2-(5′-((2,5-dichlorobenzyl)oxy)-1′,3′-dihydrospiro[azetidine-3,2′-inden]-1-yl)acetic acid (1:1)], the pEC50 in experiment [1] was at least 8.00; in experiment [2], under 6.00; in experiment [3], under 6.00; in experiment [4] it was over 6.00.

With `O=C(O)C1(CN2CC3(Cc4ccc(-c5ccc(OCc6cccc(Cl)c6)cc5)cc4C3)C2)CC1` [Example 52, 1-((5′-(4-((3-chlorobenzyl)oxy)phenyl)-1′,3′-dihydrospiro[azetidine-3,2′-inden]-1-yl)methyl)cyclopropanecarboxylic acid], the negative-log EC50 (pEC50) in experiment [1] was 7.00 to 8.00; in experiment [2] it was under 6.00; in experiment [3] it was under 6.00; in experiment [4] it was over 6.00.

Consider `CCc1cccc(Cl)c1COc1ccc2c(c1)CC1(C2)CN(CC(C)CC(=O)O)C1` (centres unmarked) [Example 64, 4-(5′-((2-chloro-6-ethylbenzyl)oxy)-1′,3′-dihydrospiro[azetidine-3,2′-inden]-1-yl)-3-methylbutanoic acid], for which the pEC50 in experiment [1] was at least 8.00; in experiment [3], under 6.00; in experiment [4], over 6.00.

Values taken from US20200055817A1 (AbbVie Deutschland GmbH & Co. KG, priority 2016, published 2020).
